In US11571423B2, “Small molecule modulators of human sting” (Curadev Pharma Limited, priority 2017, dated 2023):

target: hSTING(R232) (Homo sapiens, UniProt Q86WV6, H232R); assay: Luciferase reporter assay in HEK293T-hSTING-Luciferase cells, R232 (wild type) human STING; format: cell-based; details: 20 hr stimulation, read-out: R232 human activity (EC50 range)
Description: Stable Cell Line Generation • a) Stable STING expressing cells—Stable HEK293T STING-expressing cell lines were generated using plasmids purchased from Invivogen, CA, USA, that contain STING cDNA cloned into the pUNO-1 vector under hEF1-HTLV promoter and containing the Blasticidin selection cassette. The plasmids hSTING(R232), hSTING(H232), hSTING(HAQ) were directly procured from Invivogen while hSTING (AQ) and hSTING (Q) were derived from hSTING(HAQ) and hSTING (R232) plasmids respectively by using a PCR based site directed mutagenesis method. These vectors were individually transfected into HEK293T cells using Lipofectamine (Invitrogen) and transfected cells were selected under Blasticidin selection. These transfected cells were further subjected to clonal selection using the limiting dilution method to obtain clonally pure populations of HEK cells transfected with each of the above mentioned human STING variants. Only those clones were selected in which ligand independent activation of STING was minimal. • b) Stable Luciferase reporter gene expressing cells—Stable HEK293T Luciferase reporter gene expressing cell lines were generated using pCDNA4 plasmids under an IRF-inducible promoter. This promoter is comprised of five tandem interferon-stimulated response elements (ISRE) fused to an ISG54 minimal promoter. This vector was transfected into HEK293T cells using Lipofectamine (Invitrogen) and transfected cells were selected under Zeocin selection. These transfected cells were further subjected to clonal selection using the limiting dilution method to obtain clonally pure populations of HEK cells transfected the Luciferase reporter construct. Only those clones were selected in which ligand independent induction of luciferase was minimal.
5×10^5 clonally selected HEK293T-hSTING-Luciferase cells were seeded in 384-well plates in growth medium and stimulated with novel compounds. After 20 hr of stimulation supernatant were removed and secretary reporter gene activity were measured using the Quanti-Luc detection system (Invivogen) on a Spectramax i3X luminometer.
In the tables below, EC50 value ranges for exemplary compounds are given.
All compounds were first tested in a primary screen to obtain a ‘fold-induction’ over baseline levels of protein activity.

hSTING(R232), sequence (Q86WV6 whole entry H232R): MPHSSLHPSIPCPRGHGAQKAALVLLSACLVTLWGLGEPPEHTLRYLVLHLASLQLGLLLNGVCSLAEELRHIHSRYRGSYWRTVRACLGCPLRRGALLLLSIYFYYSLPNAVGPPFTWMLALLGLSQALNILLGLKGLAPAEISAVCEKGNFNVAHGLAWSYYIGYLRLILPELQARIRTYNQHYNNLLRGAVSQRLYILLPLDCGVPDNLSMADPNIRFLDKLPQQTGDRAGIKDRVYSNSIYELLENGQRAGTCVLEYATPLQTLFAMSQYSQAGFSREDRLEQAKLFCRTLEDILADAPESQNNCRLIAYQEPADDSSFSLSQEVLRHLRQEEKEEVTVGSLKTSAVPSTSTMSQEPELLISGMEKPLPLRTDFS

`CN1Cc2ccc(C(=O)NCc3cccc(-c4ccnn4C)c3)cc2N(Cc2c(F)cccc2Cl)C1=O` [Example 29, 1-(2-chloro-6-fluorobenzyl)-3-methyl-N-(3-(1-methyl-1H-pyrazol-5-yl)benzyl)-2-oxo-1,2,3,4-tetrahydroquinazoline-7-carboxamide] and `CN1Cc2ccc(C(=O)NCc3ccc4cnn(C)c4c3)cc2N(Cc2c(F)cccc2Cl)C1=O` [Example 51, 1-(2-chloro-6-fluorobenzyl)-3-methyl-N-((1-methyl-1H-indazol-6-yl)methyl)-2-oxo-1,2,3,4-tetrahydroquinazoline-7-carboxamide] cannot be ordered by EC50: > 10 µM for the first, > 10 µM for the second.

First: CN1Cc2ccc(C(=O)NCc3ccccc3F)cc2N(Cc2c(F)cccc2Cl)C1=O [Example 30, 1-(2-chloro-6-fluorobenzyl)-N-(2-fluorobenzyl)-3-methyl-2-oxo-1,2,3,4-tetrahydroquinazoline-7-carboxamide]
Second: COc1cccc(F)c1CNC(=O)c1ccc2c(c1)N(Cc1c(F)cccc1Cl)C(=O)N(C)C2 [Example 41, 1-(2-chloro-6-fluorobenzyl)-N-(2-fluoro-6-methoxybenzyl)-3-methyl-2-oxo-1,2,3,4-tetrahydroquinazoline-7-carboxamide]
The EC50 of the first is lower: 1 to 10 µM for the first, > 10 µM for the second.

`CN1CCN(c2cccc(CNC(=O)c3ccc4c(c3)N(Cc3c(F)cccc3Cl)C(=O)N(C)C4)c2)CC1` [Example 31] and `CN1Cc2ccc(C(=O)NCc3ccc4c(c3)CC(=O)N4)cc2N(Cc2c(F)cccc2Cl)C1=O` [Example 59, 1-(2-chloro-6-fluorobenzyl)-3-methyl-2-oxo-N-((2-oxoindolin-5-yl)methyl)-1,2,3,4-tetrahydroquinazoline-7-carboxamide] cannot be ordered by EC50: > 10 µM for the first, > 10 µM for the second.

`CN1Cc2ccc(C(=O)NCc3ccc4occc4c3)cc2N(Cc2c(F)cccc2Cl)C1=O` [Example 32, N-(benzofuran-5-ylmethyl)-1-(2-chloro-6-fluorobenzyl)-3-methyl-2-oxo-1,2,3,4-tetrahydroquinazoline-7-carboxamide] and `CN1Cc2ccc(C(=O)NCc3ccc4ccoc4c3)cc2N(Cc2c(F)cccc2Cl)C1=O` [Example 52, N-(benzofuran-6-ylmethyl)-1-(2-chloro-6-fluorobenzyl)-3-methyl-2-oxo-1,2,3,4-tetrahydroquinazoline-7-carboxamide] fall in the same range of EC50: 1 to 10 µM for the first, 1 to 10 µM for the second.

First: Cc1cc(CN2C(=O)N(C)Cc3ccc(C(=O)NCc4c(F)cc(F)cc4F)cc32)no1 [Example 33, 3-methyl-1-((5-methylisoxazol-3-yl)methyl)-2-oxo-N-(2,4,6-trifluorobenzyl)-1,2,3,4-tetrahydroquinazoline-7-carboxamide]
Second: Cc1nc(CN2C(=O)N(C)Cc3ccc(C(=O)NCc4c(F)cc(F)cc4F)cc32)co1 [Example 36, 3-methyl-1-((2-methyloxazol-4-yl)methyl)-2-oxo-N-(2,4,6-trifluorobenzyl)-l,2,3,4-tetrahydroquinazoline-7-carboxamide]
The EC50 of the first is lower: 1 to 10 µM for the first, > 10 µM for the second.

First: Cn1cnc(N2Cc3ccc(C(=O)NCc4c(F)cc(F)cc4F)cc3N(Cc3c(F)cccc3Cl)C2=O)c1 [Example 34, 1-(2-chloro-6-fluorobenzyl)-3-(1-methyl-1H-imidazol-4-yl)-2-oxo-N-(2,4,6-trifluorobenzyl)-1,2,3,4-tetrahydroquinazoline-7-carboxamide]
Second: CON1Cc2ccc(C(=O)NCc3c(F)cc(F)cc3F)cc2N(Cc2c(F)cccc2Cl)C1=O [Example 49, 1-(2-chloro-6-fluorobenzyl)-3-methoxy-2-oxo-N-(2,4,6-trifluorobenzyl)-1,2,3,4-tetrahydroquinazoline-7-carboxamide]
The EC50 of the first is higher: > 10 µM for the first, 1 to 10 µM for the second.

`CN1Cc2ccc(C(=O)NCc3c(F)cc(F)cc3F)cc2N(Cc2cnsn2)C1=O` [Example 35, l-((l,2,5-thiadiazol-3-yl)methyl)-3-methyl-2-oxo-N-(2,4,6-trifluorobenzyl)-1,2,3,4-tetrahydroquinazoline-7-carboxamide] and `CN1Cc2ccc(C(=O)NCc3c(F)cc(F)cc3F)cc2N(Cc2cn(C)nn2)C1=O` [Example 55, 3-methyl-1-((1-methyl-1H-1,2,3-triazol-4-yl)methyl)-2-oxo-N-(2,4,6-trifluorobenzyl)-1,2,3,4-tetrahydroquinazoline-7-carboxamide] cannot be ordered by EC50: > 10 µM for the first, > 10 µM for the second.

`CN1Cc2ccc(C(=O)NCc3c(F)cc(F)cc3F)cc2N(Cc2cn(C)cn2)C1=O` [Example 37, 3-methyl-1-((1-methyl-1H-imidazol-4-yl)methyl)-2-oxo-N-(2,4,6-trifluorobenzyl)-1,2,3,4-tetrahydroquinazoline-7-carboxamide] and `Cc1cc(CN2C(=O)N(C)Cc3ccc(C(=O)NCc4c(F)cc(F)cc4F)cc32)nn1C` [Example 57, l-((l,5-dimethyl-1H-pyrazol-3-yl)methyl)-3-methyl-2-oxo-N-(2,4,6-trifluorobenzyl)-1,2,3,4-tetrahydroquinazoline-7-carboxamide] cannot be ordered by EC50: > 10 µM for the first, > 10 µM for the second.

Compared with `Cc1ccc(-c2nc(CN3C(=O)N(C)Cc4ccc(C(=O)NCc5c(F)cc(F)cc5F)cc43)c(C)o2)cc1` [Example 40, 3-methyl-1-((5-methyl-2-(p-tolyl)oxazol-4-yl)methyl)-2-oxo-N-(2,4,6-trifluorobenzyl)-1,2,3,4-tetrahydroquinazoline-7-carboxamide], `Cc1oc(-c2ccc(F)cc2)nc1CN1C(=O)N(C)Cc2ccc(C(=O)NCc3c(F)cc(F)cc3F)cc21` [Example 42, l-((2-(4-fluorophenyl)-5-methyloxazol-4-yl)methyl)-3-methyl-2-oxo-N-(2,4,6-trifluorobenzyl)-1,2,3,4-tetrahydroquinazoline-7-carboxamide] is lower in EC50: > 10 µM for the first, 1 to 10 µM for the second. The second is the more potent here.

`CN1Cc2ccc(C(=O)NCc3cccc4c3OCO4)cc2N(Cc2c(F)cccc2Cl)C1=O` [Example 43, N-(benzo[d][1,3]dioxol-4-ylmethyl)-1-(2-chloro-6-fluorobenzyl)-3-methyl-2-oxo-1,2,3,4-tetrahydroquinazoline-7-carboxamide] and `CN1Cc2ccc(C(=O)NCc3cccc4c3OCCO4)cc2N(Cc2c(F)cccc2Cl)C1=O` [Example 44, l-(2-chloro-6-fluorobenzyl)-N-((2,3-dihydrobenzo[b][1,4]dioxin-5-yl)methyl)-3-methyl-2-oxo-1,2,3,4-tetrahydroquinazoline-7-carboxamide] cannot be ordered by EC50: > 10 µM for the first, > 10 µM for the second.

First: CN1Cc2ccc(C(=O)NCc3c(F)cc(F)cc3F)cc2N(Cc2cn3cc(F)ccc3n2)C1=O [Example 45, 1-((6-fluoroimidazo[1,2-a]pyridin-2-yl)methyl)-3-methyl-2-oxo-N-(2,4,6-trifluorobenzyl)-l,2,3,4-tetrahydroquinazoline-7-carboxamide]
Second: COc1cc(F)ccc1CN1C(=O)N(C)Cc2ccc(C(=O)NCc3c(F)cc(F)cc3F)cc21 [Example 46, l-(4-fluoro-2-methoxybenzyl)-3-methyl-2-oxo-N-(2,4,6-trifluorobenzyl)-1,2,3,4-tetrahydroquinazoline-7-carboxamide]
The EC50 of the first is higher: > 10 µM for the first, 1 to 10 µM for the second. The second is the more potent here.

`COc1cccc2cc(CNC(=O)c3ccc4c(c3)N(Cc3c(F)cccc3Cl)C(=O)N(C)C4)oc12` [Example 47, 1-(2-chloro-6-fluorobenzyl)-N-((7-methoxybenzofuran-2-yl)methyl)-3-methyl-2-oxo-1,2,3,4-tetrahydroquinazoline-7-carboxamide] and `CN1Cc2ccc(C(=O)NCc3cc4cc(N)ccc4o3)cc2N(Cc2c(F)cccc2Cl)C1=O` [Example 58, N-((5-aminobenzofuran-2-yl)methyl)-1-(2-chloro-6-fluorobenzyl)-3-methyl-2-oxo-1,2,3,4-tetrahydroquinazoline-7-carboxamide] cannot be ordered by EC50: > 10 µM for the first, > 10 µM for the second.

`CN1Cc2ccc(C(=O)NCc3cc4cc([N+](=O)[O-])ccc4o3)cc2N(Cc2c(F)cccc2Cl)C1=O` [Example 48, 1-(2-chloro-6-fluorobenzyl)-3-methyl-N-((5-nitrobenzofuran-2-yl)methyl)-2-oxo-1,2,3,4-tetrahydroquinazoline-7-carboxamide] and `CN1Cc2ccc(C(=O)NCc3cccc4occc34)cc2N(Cc2c(F)cccc2Cl)C1=O` [Example 50, N-(benzofuran-4-ylmethyl)-1-(2-chloro-6-fluorobenzyl)-3-methyl-2-oxo-1,2,3,4-tetrahydroquinazoline-7-carboxamide] cannot be ordered by EC50: > 10 µM for the first, > 10 µM for the second.

Compared with `CN1Cc2ccc(C(=O)NCc3c(F)cc(F)cc3F)cc2N(Cc2ccnn2C)C1=O` [Example 53, 3-methyl-1-((1-methyl-1H-pyrazol-5-yl)methyl)-2-oxo-N-(2,4,6-trifluorobenzyl)-1,2,3,4-tetrahydroquinazoline-7-carboxamide], `CN1Cc2ccc(C(=O)NCc3c(F)cc(F)cc3F)cc2N(Cc2c(F)cccc2C(F)(F)F)C1=O` [Example 56, 1-(2-fluoro-6-(trifluoromethyl)benzyl)-3-methyl-2-oxo-N-(2,4,6-trifluorobenzyl)-1,2,3,4-tetrahydroquinazoline-7-carboxamide] is lower in EC50: > 10 µM for the first, 1 to 10 µM for the second. The second is the more potent here.
